Reference: article PMC10150366, “Discovery of an In Vivo Chemical Probe for BCL6 Inhibition by Optimization of Tricyclic Quinolinones” (Journal of Medicinal Chemistry, 2023)
Where “and” joins values, the source holds several entries; their conditions need not be identical. Equal entries are not always repeated. Where two headings read alike, the source gives them in different places.

Tests used:
Format in all cases: cell-based
[1] = molecular target: T1, BCL6-SMRT (NCOR2) corepressor protein-protein interaction (Homo sapiens, UniProt P41182); test: NanoBRET cellular assay (HEK293T)
T1 construct: DNA encoding full length BCL6 and SMRT; expressed in transfected cells; host or cells: HEK293T
Protocol: Test compounds in DMSO or DMSO alone
concentration in 0.7% v/v DMSO final.
(also called NCOR2) corepressor protein-protein interaction. DNA encoding full length BCL6 and SMRT
fusion proteins BCL6-nanoLuc and SMRT-HaloTag, respectively. HEK293T cells were plated […] in T75
At the time of assay, compounds
dispensing (Labcyte Inc.). Frozen transfected HEK293T cells were thawed, centrifuged and freezing
DMSO final concentration.
After a short centrifugation the
(1st emission filter) / 450-80 nm (2nd emission filter). The % inhibition at each test concentration was
sigmoidal four-parameter logistic fit equation. […]

HRH1 [2] = molecular target: T2, HRH1 (Homo sapiens, UniProt P35367); test: SAFETYscan Calcium Flux HRH1 Agonist
Description: (§1) Supplement jm3c00155_si_002.xlsx, sheet "SAFETYScan" | column: RC50 (uM); Max Response

HTR2B = HTR2B (Homo sapiens, UniProt P41595); test: SAFETYscan Calcium Flux HTR2B Agonist
Description: as §1

ADORA2A = ADORA2A (Homo sapiens, UniProt P29274); test: SAFETYscan Calcium Flux ADORA2A Antagonist
Description: as §1

HRH1 [3] = molecular target: T2, HRH1; test: SAFETYscan Calcium Flux HRH1 Antagonist
Description: as §1

DRD1 = DRD1 (Homo sapiens, UniProt P21728); test: SAFETYscan cAMP DRD1 Agonist
Description: as §1

HTR1B = HTR1B (Homo sapiens, UniProt P28222); test: SAFETYscan cAMP HTR1B Agonist
Description: (§2) Supplement jm3c00155_si_002.xlsx, sheet "SAFETYScan" | column: RC50 (uM); Hill; Max Response

ADRA2A = molecular target: T3, ADRA2A (Homo sapiens, UniProt P08913); test: SAFETYscan cAMP ADRA2A Antagonist
T3 sequence (P08913 1-465): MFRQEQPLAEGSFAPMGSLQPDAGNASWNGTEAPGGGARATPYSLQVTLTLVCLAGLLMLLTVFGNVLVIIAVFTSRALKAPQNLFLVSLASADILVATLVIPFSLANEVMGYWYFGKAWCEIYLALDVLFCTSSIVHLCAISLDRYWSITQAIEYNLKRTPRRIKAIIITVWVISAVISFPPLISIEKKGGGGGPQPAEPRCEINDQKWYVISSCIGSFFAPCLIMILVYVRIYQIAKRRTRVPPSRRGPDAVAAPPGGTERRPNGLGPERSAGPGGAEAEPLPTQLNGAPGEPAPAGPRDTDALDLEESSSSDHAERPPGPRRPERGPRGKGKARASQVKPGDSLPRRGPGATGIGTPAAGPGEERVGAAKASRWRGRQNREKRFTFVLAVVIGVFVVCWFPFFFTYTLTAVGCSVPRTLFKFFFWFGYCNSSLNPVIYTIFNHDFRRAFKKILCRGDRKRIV
Description: as §1

ADRB1 = ADRB1 (Homo sapiens, UniProt P08588); test: SAFETYscan cAMP ADRB1 Antagonist
Description: as §2

CHRM2 = molecular target: T4, CHRM2 (Homo sapiens, UniProt P08172); test: SAFETYscan cAMP CHRM2 Antagonist
T4 sequence (P08172 1-466): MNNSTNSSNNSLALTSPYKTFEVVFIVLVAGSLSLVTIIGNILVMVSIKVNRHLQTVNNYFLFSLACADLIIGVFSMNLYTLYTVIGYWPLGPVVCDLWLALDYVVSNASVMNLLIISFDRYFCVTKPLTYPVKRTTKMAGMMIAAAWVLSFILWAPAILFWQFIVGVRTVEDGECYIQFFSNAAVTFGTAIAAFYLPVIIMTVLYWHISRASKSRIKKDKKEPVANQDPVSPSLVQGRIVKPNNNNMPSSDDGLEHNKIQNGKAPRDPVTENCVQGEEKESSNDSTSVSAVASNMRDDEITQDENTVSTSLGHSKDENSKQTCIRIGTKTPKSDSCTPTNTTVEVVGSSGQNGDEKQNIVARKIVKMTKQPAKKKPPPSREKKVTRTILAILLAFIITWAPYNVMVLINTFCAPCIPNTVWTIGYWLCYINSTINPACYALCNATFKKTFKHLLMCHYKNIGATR
Description: as §1

OPRD1 = OPRD1 (Homo sapiens, UniProt P41143); test: SAFETYscan cAMP OPRD1 Antagonist
Description: as §1

OPRK1 = OPRK1 (Homo sapiens, UniProt P41145); test: SAFETYscan cAMP OPRK1 Antagonist
Description: as §1

OPRM1 = OPRM1 (Homo sapiens, UniProt P35372); test: SAFETYscan cAMP OPRM1 Antagonist
Description: as §2

nAChR(a4/b2) = nAChR(a4/b2) (Homo sapiens, UniProt P17787+P43681); test: SAFETYscan Ion Channel nAChR(a4/b2) Opener
Description: as §1

SERT = SERT (Homo sapiens, UniProt P31645); test: SAFETYscan Transporter SERT Blocker
Description: as §1

Sequence of OPRM1 (P35372 whole entry): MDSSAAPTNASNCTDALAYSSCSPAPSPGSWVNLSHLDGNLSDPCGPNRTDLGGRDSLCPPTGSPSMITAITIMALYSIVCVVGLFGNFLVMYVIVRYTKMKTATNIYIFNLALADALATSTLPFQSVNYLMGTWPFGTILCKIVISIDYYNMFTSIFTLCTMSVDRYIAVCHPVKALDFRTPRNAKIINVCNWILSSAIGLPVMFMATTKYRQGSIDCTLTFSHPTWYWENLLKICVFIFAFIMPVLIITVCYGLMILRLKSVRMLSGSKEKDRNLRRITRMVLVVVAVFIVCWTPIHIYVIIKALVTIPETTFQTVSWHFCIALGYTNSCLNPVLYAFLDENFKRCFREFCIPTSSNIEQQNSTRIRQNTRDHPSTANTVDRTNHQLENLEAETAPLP
Sequence of ADRB1 (P08588 whole entry): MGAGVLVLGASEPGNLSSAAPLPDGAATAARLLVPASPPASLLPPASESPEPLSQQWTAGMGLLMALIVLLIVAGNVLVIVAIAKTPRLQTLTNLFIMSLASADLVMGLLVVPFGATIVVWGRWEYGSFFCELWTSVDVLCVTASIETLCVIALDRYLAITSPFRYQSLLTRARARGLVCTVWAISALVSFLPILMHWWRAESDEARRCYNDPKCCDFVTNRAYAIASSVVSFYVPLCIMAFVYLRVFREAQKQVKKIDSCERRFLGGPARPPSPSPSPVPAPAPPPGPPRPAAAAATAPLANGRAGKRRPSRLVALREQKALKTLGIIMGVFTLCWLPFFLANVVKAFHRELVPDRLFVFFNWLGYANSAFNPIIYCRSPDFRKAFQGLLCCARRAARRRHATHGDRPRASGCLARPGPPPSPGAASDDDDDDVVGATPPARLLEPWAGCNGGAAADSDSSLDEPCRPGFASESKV
T2 sequence (P35367 whole entry): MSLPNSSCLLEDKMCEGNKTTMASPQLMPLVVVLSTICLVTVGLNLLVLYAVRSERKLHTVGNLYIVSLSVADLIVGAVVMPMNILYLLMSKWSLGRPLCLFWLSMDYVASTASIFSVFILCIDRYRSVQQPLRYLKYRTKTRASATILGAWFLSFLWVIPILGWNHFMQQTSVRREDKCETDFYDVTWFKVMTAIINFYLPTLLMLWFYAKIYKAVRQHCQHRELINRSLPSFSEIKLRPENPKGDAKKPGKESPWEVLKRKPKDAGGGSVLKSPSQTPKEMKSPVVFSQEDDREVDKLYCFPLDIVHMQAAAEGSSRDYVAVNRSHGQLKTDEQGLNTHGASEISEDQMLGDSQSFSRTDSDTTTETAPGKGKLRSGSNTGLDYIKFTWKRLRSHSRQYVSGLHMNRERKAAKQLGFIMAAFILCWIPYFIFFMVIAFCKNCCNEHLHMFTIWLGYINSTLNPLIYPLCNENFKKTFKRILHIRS
Sequence of HTR1B (P28222 whole entry): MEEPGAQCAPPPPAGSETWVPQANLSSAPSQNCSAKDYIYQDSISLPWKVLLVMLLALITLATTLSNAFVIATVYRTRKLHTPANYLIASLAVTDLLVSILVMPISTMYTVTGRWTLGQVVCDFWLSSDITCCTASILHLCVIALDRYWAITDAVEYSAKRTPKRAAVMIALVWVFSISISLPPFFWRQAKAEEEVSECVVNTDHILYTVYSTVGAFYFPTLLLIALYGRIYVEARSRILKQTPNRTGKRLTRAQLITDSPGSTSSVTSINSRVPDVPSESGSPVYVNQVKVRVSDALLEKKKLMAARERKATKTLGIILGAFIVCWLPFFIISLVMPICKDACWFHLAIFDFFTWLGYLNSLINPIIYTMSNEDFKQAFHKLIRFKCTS
Sequence of DRD1 (P21728 whole entry): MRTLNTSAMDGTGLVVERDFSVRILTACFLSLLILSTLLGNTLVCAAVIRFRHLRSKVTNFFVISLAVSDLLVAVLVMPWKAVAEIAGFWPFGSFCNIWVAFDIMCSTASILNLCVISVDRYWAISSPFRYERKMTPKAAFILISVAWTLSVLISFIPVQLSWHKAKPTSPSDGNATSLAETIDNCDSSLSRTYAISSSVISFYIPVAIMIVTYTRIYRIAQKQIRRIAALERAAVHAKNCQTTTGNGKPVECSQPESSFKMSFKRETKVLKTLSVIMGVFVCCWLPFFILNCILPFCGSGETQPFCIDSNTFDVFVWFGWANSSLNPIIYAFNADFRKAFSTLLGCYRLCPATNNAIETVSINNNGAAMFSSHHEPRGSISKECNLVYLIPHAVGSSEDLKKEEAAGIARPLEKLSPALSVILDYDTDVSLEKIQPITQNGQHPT
Sequence of OPRD1 (P41143 whole entry): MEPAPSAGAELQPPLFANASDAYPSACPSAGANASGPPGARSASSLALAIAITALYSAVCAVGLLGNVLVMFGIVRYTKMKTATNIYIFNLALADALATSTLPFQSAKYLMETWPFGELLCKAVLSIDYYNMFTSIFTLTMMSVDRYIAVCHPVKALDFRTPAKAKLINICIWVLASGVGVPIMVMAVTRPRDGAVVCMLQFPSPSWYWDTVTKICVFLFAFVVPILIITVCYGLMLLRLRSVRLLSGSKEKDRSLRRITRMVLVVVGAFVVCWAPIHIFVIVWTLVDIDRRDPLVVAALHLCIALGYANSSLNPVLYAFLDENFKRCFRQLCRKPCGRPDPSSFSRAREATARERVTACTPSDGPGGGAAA
Sequence of ADORA2A (P29274 whole entry): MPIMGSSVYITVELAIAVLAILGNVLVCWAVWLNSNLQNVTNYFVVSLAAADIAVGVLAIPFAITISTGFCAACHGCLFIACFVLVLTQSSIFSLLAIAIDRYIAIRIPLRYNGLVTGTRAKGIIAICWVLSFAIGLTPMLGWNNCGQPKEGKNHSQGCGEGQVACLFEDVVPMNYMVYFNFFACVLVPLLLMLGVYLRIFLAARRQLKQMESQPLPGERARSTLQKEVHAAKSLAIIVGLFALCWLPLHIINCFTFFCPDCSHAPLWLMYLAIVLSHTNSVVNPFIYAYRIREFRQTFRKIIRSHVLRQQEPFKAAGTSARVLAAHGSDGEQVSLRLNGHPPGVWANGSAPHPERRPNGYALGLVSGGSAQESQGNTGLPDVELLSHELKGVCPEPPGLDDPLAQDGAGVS
Sequence of HTR2B (P41595 whole entry): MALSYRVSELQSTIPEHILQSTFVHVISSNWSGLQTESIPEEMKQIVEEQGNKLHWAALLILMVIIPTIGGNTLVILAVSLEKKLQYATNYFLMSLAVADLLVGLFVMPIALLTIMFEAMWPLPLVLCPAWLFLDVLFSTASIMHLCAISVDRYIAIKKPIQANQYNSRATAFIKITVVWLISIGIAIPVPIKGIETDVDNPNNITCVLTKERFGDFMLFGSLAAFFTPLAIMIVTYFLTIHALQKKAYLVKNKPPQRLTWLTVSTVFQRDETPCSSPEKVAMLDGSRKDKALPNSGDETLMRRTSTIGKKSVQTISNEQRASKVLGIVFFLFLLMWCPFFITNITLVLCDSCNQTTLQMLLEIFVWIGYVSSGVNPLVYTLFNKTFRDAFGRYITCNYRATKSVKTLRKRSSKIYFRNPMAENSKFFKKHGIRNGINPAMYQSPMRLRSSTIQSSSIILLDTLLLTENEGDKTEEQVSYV
Sequence of OPRK1 (P41145 whole entry): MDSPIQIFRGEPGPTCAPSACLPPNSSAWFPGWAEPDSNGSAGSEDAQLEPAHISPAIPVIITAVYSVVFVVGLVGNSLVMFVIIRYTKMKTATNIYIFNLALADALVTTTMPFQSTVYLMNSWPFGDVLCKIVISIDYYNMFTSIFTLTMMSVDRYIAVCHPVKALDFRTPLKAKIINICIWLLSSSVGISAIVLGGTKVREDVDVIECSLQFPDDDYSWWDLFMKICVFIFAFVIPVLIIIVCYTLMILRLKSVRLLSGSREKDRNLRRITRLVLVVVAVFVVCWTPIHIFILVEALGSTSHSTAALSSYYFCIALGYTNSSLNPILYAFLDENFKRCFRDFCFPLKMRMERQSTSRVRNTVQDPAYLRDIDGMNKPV
Sequence of nAChR(a4/b2) (P43681 29-627 limits assumed): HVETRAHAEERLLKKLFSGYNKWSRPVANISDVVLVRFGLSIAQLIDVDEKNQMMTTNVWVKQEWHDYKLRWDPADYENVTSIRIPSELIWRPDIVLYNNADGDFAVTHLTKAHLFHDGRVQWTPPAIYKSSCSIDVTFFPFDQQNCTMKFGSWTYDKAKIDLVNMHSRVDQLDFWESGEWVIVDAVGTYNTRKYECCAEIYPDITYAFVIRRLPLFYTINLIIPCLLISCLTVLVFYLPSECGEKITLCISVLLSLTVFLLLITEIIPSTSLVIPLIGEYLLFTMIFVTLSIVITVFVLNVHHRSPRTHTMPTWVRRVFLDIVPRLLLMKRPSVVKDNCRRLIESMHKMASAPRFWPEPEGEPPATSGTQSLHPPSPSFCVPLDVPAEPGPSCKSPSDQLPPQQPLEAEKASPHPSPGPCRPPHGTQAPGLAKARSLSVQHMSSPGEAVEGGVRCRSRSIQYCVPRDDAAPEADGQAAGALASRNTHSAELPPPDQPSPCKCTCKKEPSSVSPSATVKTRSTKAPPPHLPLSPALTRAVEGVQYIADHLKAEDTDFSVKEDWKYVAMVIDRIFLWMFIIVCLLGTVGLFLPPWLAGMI
Sequence of nAChR(a4/b2) (P17787 26-502): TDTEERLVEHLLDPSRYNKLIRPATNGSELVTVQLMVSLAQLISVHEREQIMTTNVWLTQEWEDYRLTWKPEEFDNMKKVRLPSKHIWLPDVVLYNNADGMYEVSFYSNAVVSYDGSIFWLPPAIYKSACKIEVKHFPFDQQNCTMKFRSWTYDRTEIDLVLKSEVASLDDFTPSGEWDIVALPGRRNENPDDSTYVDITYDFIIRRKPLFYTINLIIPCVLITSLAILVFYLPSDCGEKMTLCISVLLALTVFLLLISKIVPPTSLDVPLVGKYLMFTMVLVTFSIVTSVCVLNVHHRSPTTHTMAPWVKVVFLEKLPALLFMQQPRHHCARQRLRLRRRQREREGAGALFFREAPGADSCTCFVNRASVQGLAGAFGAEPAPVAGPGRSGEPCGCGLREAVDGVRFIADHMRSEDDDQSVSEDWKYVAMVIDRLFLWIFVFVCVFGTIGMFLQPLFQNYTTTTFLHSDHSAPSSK

Work on Cn1c(=O)c2c(c3cc(Nc4ccnc(F)c4Cl)ccc31)N[C@@H](C1CC1)C(F)(F)CO2 [compound 17, (S)-10-((3-chloro-2-fluoropyridin-4-yl)amino)-2-cyclopropyl-3,3-difluoro-7-methyl-1,2,3,4-tetrahydro-[1,4]oxazepino[2,3-c]quinolin-6(7H)-one] yielded an IC90 ([1]; HEK-293T, Table S2, read-out: BCL6 NanoBRET IC90 individual replicates) of 140 nM, a calculated free (unbound) cellular IC90 ([1]; HEK-293T, calculated free cellular IC90 from NanoBRET assay) of 48 nM and an IC90 ([1]; HEK-293T, geometric mean of at least three replicates, read-out: NanoBRET IC90) of 140 nM. For the same compound, the “BCL6 NanoBRET pIC50 mean” value ([1]; Table S2) was 7.6643, the IC50 ([1]; geometric mean of at least three replicates, read-out: NanoBRET IC50) was 22 nM and the IC50 ([1]; single replicates, Table S2, listed as CCT374705, 17, read-out: BCL6 NanoBRET IC50 individual replicates) was 21.8 nM and 22.2 nM. For the same compound, the IC50 ([1]; single replicates, Table S2, read-out: BCL6 NanoBRET IC50 individual replicates) was 25.1 nM and 17.3 nM and 24.3 nM and 18.4 nM and 20.9 nM and 24.2 nM and 77.1 nM and 15.6 nM and 11.1 nM and 15.4 nM and 40.7 nM and 25.3 nM and 23.2 nM and 13 nM and 32.6 nM and 29.5 nM and 10.1 nM and 12.1 nM and 44.2 nM and 19.7 nM and 14.6 nM and 25.2 nM, the IC50 ([1]; supplement, read-out: BCL6 NanoBRET IC50 Geometric Mean) was 21.7 nM and the Emax (HRH1 [2]; read-out: Max Response) was 0%. It also gave an EC50 (HRH1 [2]; read-out: RC50 (EC50)) of over 10000 nM, an EC50 (HTR2B) of over 10000 nM and an Emax (HTR2B; HTR2B, Calcium Flux, Agonist, read-out: Max Response) of 0%. The Emax (ADORA2A; read-out: Max Response) was 10.4%, the IC50 (ADORA2A; read-out: RC50 (IC50)) was over 10000 nM and the Emax (HRH1 [3]; read-out: Max Response) was 14.2%. The IC50 (HRH1 [3]; read-out: RC50 (IC50)) was over 10000 nM, the EC50 (DRD1) was over 10000 nM and the Emax (DRD1; DRD1, cAMP, Agonist, read-out: Max Response) was 0%. The EC50 (HTR1B) was 9130 nM, the Hill (HTR1B; HTR1B, cAMP, Agonist) was 0.76 and the Emax (HTR1B; HTR1B, cAMP, Agonist, read-out: Max Response) was 50.3%. The IC50 (ADRA2A) was over 10000 nM, the Emax (ADRA2A; ADRA2A, cAMP, Antagonist, read-out: Max Response) was 0% and the Hill (ADRB1) was 1.19. It also gave an Emax (ADRB1; read-out: Max Response) of 88.7%, an IC50 (ADRB1; read-out: RC50 (IC50)) of 1600 nM and an IC50 (CHRM2) of over 10000 nM. It also gave an Emax (CHRM2; CHRM2, cAMP, Antagonist, read-out: Max Response) of 0%, an IC50 (OPRD1) of over 10000 nM and an Emax (OPRD1; OPRD1, cAMP, Antagonist, read-out: Max Response) of 46%. The IC50 (OPRK1) was over 10000 nM, the Emax (OPRK1; OPRK1, cAMP, Antagonist, read-out: Max Response) was 0.95% and the IC50 (OPRM1) was 4360 nM. For the same compound, the Hill (OPRM1; OPRM1, cAMP, Antagonist) was 0.72, the Emax (OPRM1; OPRM1, cAMP, Antagonist, read-out: Max Response) was 56.3% and the EC50 (nAChR(a4/b2)) was over 10000 nM. The Emax (nAChR(a4/b2); nAChR(a4/b2), Ion Channel, Opener, read-out: Max Response) was 3.37%, the IC50 (SERT) was over 10000 nM and the Emax (SERT; SERT, Transporter, Blocker, read-out: Max Response) was 0%.
